Laboratory results reported in US10245245B2, “Compositions and methods for neuroprotection and treatment of neurodegeneration” (Vireo Systems, Inc., priority 2015, dated 2019).

How the values were obtained:
Relative bioavailability = settings: in vivo
[1] = system: confirmed carriers of the HD gene mutation; assay: Creatine HCl in patients having HD gene mutation (clinical neurological assessment, MRI); type: in vivo, human; settings: 10 to 12 grams/day
Protocol: Patients were confirmed carriers of the HD gene mutation at early stage 1 progression. Each patient was instructed to take 10 to 12 grams/day of creatine HCl. Neurological progression of disease was monitored quarterly as were full blood chemistry profiles. Assessment of neurological progression using magnetic resonance imaging (MRI) was also performed at a minimum of once a year.

[2] = cited from earlier work

Row | SMILES | relative bioavailability, greater than creatine monohydrate (Relative bioavailability) | progression of disease (clinical neurological assessments or MRI) ([1]; 3.5 years, early stage 1 carriers) | onset of the disease / symptoms ([1]; over the 3.5 year time period) | patients unable to tolerate the maximum dose ([2]; 30 g daily) | those on placebo unable to tolerate the maximal dose when they switched to it ([2]; maximal dose 30 g daily) [%]
1 | CN(CC(=O)O)C(=N)N.Cl [creatine HCl, creatine hydrochloride] | at least 50% | no progression of disease | no symptoms | – | –
2 | CN(CC(=O)O)C(=N)N.O [creatine monohydrate] | – | – | – | about one-third | 13
